{
  "source": "patent EP0322748B1",
  "about": "“Antibiotic NK86-0279, process for production of the same and application of the same” (NIPPON KAYAKU KABUSHIKI KAISHA, priority 1987, dated 1989)",
  "key": {"[1]": {"system": "mouse malignant melanoma (B16 melanotic melanoma)", "experiment": "in-vivo test by intravenous administration against mouse malignant melanoma, tumor volume", "set-up": "species or system C57BL/6 mouse", "description": "The anti-cancer action of the compound of the present invention against mouse malignant melanoma (B16 melanotic melanoma) was examined. 5 x 10⁵ mouse malignant melanoma cells were inoculated into a subcutaneous portion of the right body side of a 6 week-old male C57BL/6 mouse, and the compound of the present invention was intravenously administered to the mouse in various concentrations every day from the next day or from 7 days after the inoculation once a day for 5 days. On the 11 days after the inoculation, the minor axis and the major axis of the tumor were measured, and the volume of the tumor was determined by using the following equation: (minor axis)² x […]/2 [formula] . Then, the percentage inhibition of proliferation of each tumor with respect to the compound of the present invention was determined from the ratio of the volume of the tumor on the groups of administration of the compound of the present invention relative to that on the control group."}, "[2]": {"experiment": "solubility", "type": "physicochemical"}, "[3]": {"system": "mouse pulmonary cancer cells (LL)", "experiment": "growth-inhibitory effect on mouse pulmonary cancer cells, dye exclusion method", "type": "cell-based", "details": "72 h", "procedure": "The growth-inhibitory effects of the compound of the present invention on mouse pulmonary cancer cells (LL) and human plumonary cancer cells (PC-3) were examined.\nA 96-well plate was inoculated with mouse pulmonary cancer cells at a ratio of 8.0 x 10² cells per well, while another 96-well plate was inoculated with human pulmonary cancer cells at a ratio of 2.5 x 10³ per well. These cells were incubated in an incubator at 37°C under 5 % CO₂ for 24 hours. Then the compound of the present invention was added thereto at various concentrations. Cells in each well were counted by the dye exclusion method three days after the addition to thereby evaluate the growth-inhibitory effect of the test compound on the mouse pulmonary cancer cells (LL) and that on the human pulmonary cancer cells (PC-3)."}, "[4]": {"system": "mouse breast cancer (Ehrlich B)", "experiment": "anti-cancer action against grafted mouse breast cancer, tumor volume", "type": "in vivo", "description": "The anti-cancer action of the compound of the present invention against mouse lung cancer (lewis lung carcinoma) and mouse breast cancer (Ehrlich B) was examined. 1 x 10⁶ mouse lung cancer cells or mouse breast cancer cells were grafted into a subcutaneous portion of the groin of an eight week-old male BDF₁ or ICR mouse, and the compound of the present invention was intraperitoneally administered to the mouse in various concentrations every day from two days after the graft once a day for 9 days. On the second day after completion of the administration, the minor axis and the major axis of the tumor were measured, and the volume of the tumor was determined by using the following equation: (minor axis)² x […]/2 [formula] . Then, the percentage inhibition of proliferation of each tumor with respect to the compound of the present invention was determined from the ratio of the volume of the tumor on the groups of administration of the compound of the present invention relative to that on the control group."}, "[5]": {"system": "Torula herbarum", "experiment": "antifungal spectrum (minimum inhibitory concentration on agar)", "type": "cell-based", "details": "Czapek Dox solution agar", "description": "(§1) The antifungal spectrum of the compound of the present invention was examined."}, "[6]": {"system": "Saccharomyces cerevisiae", "experiment": "antifungal spectrum (minimum inhibitory concentration on agar)", "type": "cell-based", "details": "Czapek Dox solution agar", "description": "as §1"}, "[7]": {"system": "Rhizopus hangchao", "experiment": "antifungal spectrum (minimum inhibitory concentration on agar)", "type": "cell-based", "details": "Czapek Dox solution agar", "description": "as §1"}, "[8]": {"system": "Mucor javanicus", "experiment": "antifungal spectrum (minimum inhibitory concentration on agar)", "type": "cell-based", "details": "Czapek Dox solution agar", "description": "as §1"}, "[9]": {"system": "Aspergillus oryzae", "experiment": "antifungal spectrum (minimum inhibitory concentration on agar)", "type": "cell-based", "details": "Czapek Dox solution agar", "description": "as §1"}, "[10]": {"system": "Candida albicans", "experiment": "antifungal spectrum (minimum inhibitory concentration on agar)", "type": "cell-based", "details": "Czapek Dox solution agar", "description": "as §1"}, "[11]": {"system": "Glomerella cingulata", "experiment": "antifungal spectrum (minimum inhibitory concentration on agar)", "type": "cell-based", "details": "Colletotrichum gloeosporioides; Czapek Dox solution agar", "description": "as §1"}, "[12]": {"system": "Botrytis cinerea", "experiment": "antifungal spectrum (minimum inhibitory concentration on agar)", "type": "cell-based", "details": "potato sucrose agar medium was used", "description": "as §1"}, "[13]": {"system": "Fusarium roseum f. sp.", "experiment": "antifungal spectrum (minimum inhibitory concentration on agar)", "type": "cell-based", "details": "Fusarium sambucinum; Czapek Dox solution agar", "description": "as §1"}, "[14]": {"system": "Aspergillus niger", "experiment": "antifungal spectrum (minimum inhibitory concentration on agar)", "type": "cell-based", "details": "Czapek Dox solution agar", "description": "as §1"}, "[15]": {"system": "Sporobolomyces salmonicolor", "experiment": "antifungal spectrum (minimum inhibitory concentration on agar)", "type": "cell-based", "details": "Czapek Dox solution agar", "description": "as §1"}, "[16]": {"system": "Penicillium chrysogenum", "experiment": "antifungal spectrum (minimum inhibitory concentration on agar)", "type": "cell-based", "details": "Czapek Dox solution agar", "description": "as §1"}, "[17]": {"system": "mouse malignant melanoma (B16 melanotic melanoma)", "experiment": "in-vivo test by intraperitoneal administration against mouse malignant melanoma, tumor volume", "set-up": "species or system BDF₁ mouse", "details": "11 days after inoculation", "description": "The anti-cancer action of the compound of the present invention against mouse malignant melanoma (B16 melanotic melanoma) was examined. 4 x 10⁵ mouse malignant melanoma cells were inoculated into a subcutaneous portion of the right body side of a 8 week-old male BDF₁ mouse, and the compound of the present invention was intraperitoneally administered to the mouse in various concentrations every day from the next day of the inoculation once a day for 10 days. On the 11 days after the inoculation the minor axis and the major axis of the tumor were measured, and the volume of the tumor was determined by using the following equation: (minor axis)² x […] [formula] . Then, the percentage inhibition of proliferation of each tumor with respect to the compound of the present invention was determined from the ratio of the volume of the tumor on the groups of administration of the compound of the present invention relative to that on the control group."}},
  "data": [
    {"smiles": "CCC1C=CC=CCC(C)C(O)C(C)(O)C(=O)C(C)C(O)C(C)C(=O)C(C)C(O)C(C)C=CC(=O)OC2C(C)C(CC1)OC1(OC(CC(C)O)C(C)CC1=O)C2CC", "note": "(centres unmarked) [NK86-0279]", "values": [
      {"measurement": "Growth-inhibitory ratio (tumor volume)", "setting": "[1]; 0.05 mg/kg intravenously once a day for 5 days, administered from 7 days after the inoculation", "result": 57.4, "unit": "%"},
      {"measurement": "Growth-inhibitory ratio (tumor volume)", "setting": "[1]; 0.05 mg/kg intravenously once a day for 5 days, administered from the next day of the inoculation", "result": 57.0, "unit": "%"},
      {"measurement": "Growth-inhibitory ratio (tumor volume)", "setting": "[1]; 0.10 mg/kg intravenously once a day for 5 days, administered from 7 days after the inoculation", "result": 69.1, "unit": "%"},
      {"measurement": "Growth-inhibitory ratio (tumor volume)", "setting": "[1]; 0.10 mg/kg intravenously once a day for 5 days, administered from the next day of the inoculation", "result": 62.9, "unit": "%"},
      {"measurement": "Growth-inhibitory ratio (tumor volume)", "setting": "[1]; 0.20 mg/kg intravenously once a day for 5 days, administered from 7 days after the inoculation", "result": 76.6, "unit": "%"},
      {"measurement": "Growth-inhibitory ratio (tumor volume)", "setting": "[1]; 0.20 mg/kg intravenously once a day for 5 days, administered from the next day of the inoculation", "result": 56.9, "unit": "%"},
      {"measurement": "Growth-inhibitory ratio (tumor volume)", "setting": "[1]; 0.40 mg/kg intravenously once a day for 5 days, administered from 7 days after the inoculation", "result": 81.9, "unit": "%"},
      {"measurement": "Growth-inhibitory ratio (tumor volume)", "setting": "[1]; 0.40 mg/kg intravenously once a day for 5 days, administered from the next day of the inoculation", "result": 50.5, "unit": "%"},
      {"measurement": "solubility", "setting": "[2]; in hexane", "result": "hardly soluble"},
      {"measurement": "solubility", "setting": "[2]; in methanol, acetone, ethyl acetate and dimethyl sulfoxide", "result": "soluble"},
      {"measurement": "solubility", "setting": "[2]; in organic solvents such as methanol, acetone, ethyl acetate and ethanol", "result": "soluble"},
      {"measurement": "solubility", "setting": "[2]; in water", "result": "hardly soluble"},
      {"measurement": "IC50", "setting": "[3]; mouse pulmonary cancer cells (LL), three days after the addition, read-out: IC₅₀", "result": 0.0098, "unit": "µg/mL"},
      {"measurement": "inhibition at 0.024 µg/mL", "setting": "[3]; Mus musculus, LL, 0.024 µg/ml, read-out: Growth-inhibitory ratio", "result": 30.4, "unit": "%"},
      {"measurement": "inhibition at 0.061 µg/mL", "setting": "[3]; Mus musculus, LL, 0.061 µg/ml, read-out: Growth-inhibitory ratio", "result": -5.7, "unit": "%"},
      {"measurement": "inhibition at 0.098 µg/mL", "setting": "[3]; Mus musculus, LL, 0.098 µg/ml, read-out: Growth-inhibitory ratio", "result": 50, "unit": "%"},
      {"measurement": "inhibition at 0.39 µg/mL", "setting": "[3]; Mus musculus, LL, 0.39 µg/ml, read-out: Growth-inhibitory ratio", "result": 61, "unit": "%"},
      {"measurement": "inhibition at 1.56 µg/mL", "setting": "[3]; Mus musculus, LL, 1.56 µg/ml, read-out: Growth-inhibitory ratio", "result": 92.1, "unit": "%"},
      {"measurement": "inhibition at 6.25 µg/mL", "setting": "[3]; Mus musculus, LL, 6.25 µg/ml, read-out: Growth-inhibitory ratio", "result": 114, "unit": "%"},
      {"measurement": "inhibition at 25 µg/mL", "setting": "[3]; Mus musculus, LL, 25 µg/ml, read-out: Growth-inhibitory ratio", "result": 110, "unit": "%"},
      {"measurement": "inhibition at 100 µg/mL", "setting": "[3]; Mus musculus, LL, 100 µg/ml, read-out: Growth-inhibitory ratio", "result": 109, "unit": "%"},
      {"measurement": "Growth-inhibitory ratio (tumor volume)", "setting": "[4]; 0.032 mg/kg intraperitoneally once a day for 9 days", "result": 22.5, "unit": "%"},
      {"measurement": "Growth-inhibitory ratio (tumor volume)", "setting": "[4]; 0.063 mg/kg intraperitoneally once a day for 9 days", "result": -0.4, "unit": "%"},
      {"measurement": "Growth-inhibitory ratio (tumor volume)", "setting": "[4]; 0.125 mg/kg intraperitoneally once a day for 9 days", "result": 44.3, "unit": "%"},
      {"measurement": "Growth-inhibitory ratio (tumor volume)", "setting": "[4]; 0.250 mg/kg intraperitoneally once a day for 9 days, 0.25 mg/kg", "result": 67, "unit": "%"},
      {"measurement": "Growth-inhibitory ratio (tumor volume)", "setting": "[4]; 0.500 mg/kg intraperitoneally once a day for 9 days", "result": 61.7, "unit": "%"},
      {"measurement": "MIC", "setting": "[5]", "result": 3.13, "unit": "µg/mL"},
      {"measurement": "MIC", "setting": "[6]", "result": "> 100", "unit": "µg/mL"},
      {"measurement": "MIC", "setting": "[7]", "result": 6.25, "unit": "µg/mL"},
      {"measurement": "MIC", "setting": "[8]", "result": "> 100", "unit": "µg/mL"},
      {"measurement": "MIC", "setting": "[9]", "result": 3.13, "unit": "µg/mL"},
      {"measurement": "MIC", "setting": "[10]", "result": "> 100", "unit": "µg/mL"},
      {"measurement": "MIC", "setting": "[11]", "result": 6.25, "unit": "µg/mL"},
      {"measurement": "MIC", "setting": "[12]", "result": 12.5, "unit": "µg/mL"},
      {"measurement": "MIC", "setting": "[13]", "result": 6.25, "unit": "µg/mL"},
      {"measurement": "MIC", "setting": "[14]", "result": 6.25, "unit": "µg/mL"},
      {"measurement": "MIC", "setting": "[15]", "result": 6.25, "unit": "µg/mL"},
      {"measurement": "MIC", "setting": "[16]", "result": 1.56, "unit": "µg/mL"},
      {"measurement": "Growth-inhibitory ratio (tumor volume)", "setting": "[17]; 0.012 mg/kg intraperitoneally once a day for 10 days", "result": 50.7, "unit": "%"},
      {"measurement": "Growth-inhibitory ratio (tumor volume)", "setting": "[17]; 0.021 mg/kg intraperitoneally once a day for 10 days", "result": 19.3, "unit": "%"},
      {"measurement": "Growth-inhibitory ratio (tumor volume)", "setting": "[17]; 0.037 mg/kg intraperitoneally once a day for 10 days", "result": 41.4, "unit": "%"},
      {"measurement": "Growth-inhibitory ratio (tumor volume)", "setting": "[17]; 0.064 mg/kg intraperitoneally once a day for 10 days", "result": 40.5, "unit": "%"},
      {"measurement": "Growth-inhibitory ratio (tumor volume)", "setting": "[17]; 0.111 mg/kg intraperitoneally once a day for 10 days", "result": 38.4, "unit": "%"},
      {"measurement": "Growth-inhibitory ratio (tumor volume)", "setting": "[17]; 0.192 mg/kg intraperitoneally once a day for 10 days", "result": 54.7, "unit": "%"},
      {"measurement": "Growth-inhibitory ratio (tumor volume)", "setting": "[17]; 0.333 mg/kg intraperitoneally once a day for 10 days", "result": 53.2, "unit": "%"},
      {"measurement": "Growth-inhibitory ratio (tumor volume)", "setting": "[17]; 0.577 mg/kg intraperitoneally once a day for 10 days", "result": 60.4, "unit": "%"},
      {"measurement": "Growth-inhibitory ratio (tumor volume)", "setting": "[17]; 1.000 mg/kg intraperitoneally once a day for 10 days", "result": 80, "unit": "%"}
    ]}
  ]
}
